Test results taken from patent US11827580B2, “Aminotetraline activators of serotonin receptors” (ATAI Life Sciences AG, priority 2021, dated 2023).
Counter-ions that a name gives are not always drawn.

What was measured:
5HT2A [1] = target: T1, 5HT2A (Homo sapiens, UniProt P28223); assay: PathHunter β-Arrestin assay; format: cell-based; parameters: host or cells: U2OS (human), stably transfected
From the text: Arrestin Pathway (Performed by DiscoverX Eurofins)
The PathHunter® β-Arrestin assay monitors the activation of a GPCR in a homogenous, non-imaging assay format using a technology developed by DiscoverX called Enzyme Fragment Complementation (EFC) with β-galactosidase (β-Gal) as the functional reporter. […] EA is fused to β-Arrestin and PK is fused to the GPCR of interest. When the GPCR is activated and β-Arrestin is recruited to the receptor, ED and EA complementation occurs, restoring β-Gal activity which is measured using chemiluminescent PathHunter® Detection Reagents.
PathHunter cell lines (DiscoveRx Eurofins) were expanded from freezer stocks according to standard procedures. Human 5-HT2A receptor-mediated GPCR β-arrestin activity was evaluated in stably transfected human-derived U2OS cells. Cells were seeded in a total […] into white walled, 384-well microplates and incubated at 37° C. overnight prior to testing.
For agonist determination, cells were incubated with sample to induce response. Intermediate dilution of sample stocks was performed to generate 5× sample in assay buffer. 5 μL of 5× sample was added to cells and incubated at 37° C. or room temperature for 120 minutes. Vehicle concentration was 1%.
β-Arrestin assay signal was generated through a single addition of 12.5 or 15 μL (50% v/v) of PathHunter Detection reagent cocktail, followed by a one hour incubation at room temperature. Microplates were read following signal generation with a PerkinElmer Envision™ instrument for chemiluminescent signal detection.
Compound activity was analyzed using CBIS data analysis suite (ChemInnovation, CA). For agonist mode assays, percentage activity was calculated using the following formula: % Activity=100%×(mean RLU of test sample−mean RLU of vehicle control)/(mean MAX control ligand−mean RLU of vehicle control).
In these studies, the MAX control ligand response was generated using 1 μM serotonin.

5HT2A [2] = target: T1, 5HT2A; assay: 5HT2A activation (%) max at two concentrations (Table 1); format: cell-based; conditions: for 5HT2A activation (%) max @ 03 μM: 03 μM [sic]; for 5HT2A activation (%) max @ 30 μM: 30 μM (first value of the cell)
[3] = in comparison to mescaline or 2,5-dimethoxy-4-methylphenylisopropylamine at similar doses; cited from earlier work
Human 5-HT2B receptor = target: T2, Human 5-HT2B receptor (Homo sapiens, UniProt P41595); assay: Calcium mobilization assay (Gq signaling); format: cell-based
T2 construct: host or cells: U2OS or HEK (the text names 5-HT2B under both)
T2 sequence (P41595 whole entry): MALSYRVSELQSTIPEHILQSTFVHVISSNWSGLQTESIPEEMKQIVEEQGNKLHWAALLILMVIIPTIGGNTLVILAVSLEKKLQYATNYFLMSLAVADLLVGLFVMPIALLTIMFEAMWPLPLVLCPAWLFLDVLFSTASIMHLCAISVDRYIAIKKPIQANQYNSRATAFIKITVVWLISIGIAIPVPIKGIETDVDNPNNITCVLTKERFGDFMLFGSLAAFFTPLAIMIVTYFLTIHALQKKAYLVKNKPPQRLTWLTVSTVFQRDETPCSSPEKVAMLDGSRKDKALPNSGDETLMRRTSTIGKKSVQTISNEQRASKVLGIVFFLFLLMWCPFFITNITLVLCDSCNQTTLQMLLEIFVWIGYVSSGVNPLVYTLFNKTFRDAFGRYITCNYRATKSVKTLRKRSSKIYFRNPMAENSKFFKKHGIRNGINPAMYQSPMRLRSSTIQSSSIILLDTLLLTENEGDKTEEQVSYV
From the text: (§1) Calcium Mobilization Assay Method (Performed by DiscoveRx Eurofins)
(§2) The Calcium No-Wash^PLUS assay monitors the activation of a GPCR via Gq secondary messenger signaling in a live cell, non-imaging assay format. Calcium mobilization in PathHunter® cell lines or other cell lines stably expressing Gq-coupled GPCRs is monitored using a calcium-sensitive dye that is loaded into cells. GPCR activation by a compound results in the release of calcium from intracellular stores and an increase in dye fluorescence that is measured in real-time.
(§3) Cell lines expressing the GPCR of interest were expanded from freezer stocks according to standard procedures. Human 5-HT2A, 5-HT2B or 5-HT2C receptor-mediated calcium mobilization was evaluated in stably transfected human-derived U2OS (5-HT2A or 5-HT2B) or HEK (5-HT2B) cells. Cells were seeded in a total volume of 20 μL into black-walled, clear-bottom, Poly-D-lysine coated 384-well microplates and incubated at 37° C. overnight prior to testing. […]
(§4) Intermediate dilution of sample stocks was performed to generate 4× sample in assay buffer. Compound agonist activity was measured on a FLIPR Tetra (MDS). Calcium mobilization was monitored for 2 minutes and 10 μL 4× sample in HBSS/20 mM Hepes was added to the cells seconds into the assay.
(§5) Compound activity data was analyzed using CBIS data analysis suite (ChemInnovation, CA). […]

Human 5-HT2C receptor = target: T3, Human 5-HT2C receptor (Homo sapiens, UniProt P28335); assay: Calcium mobilization assay (Gq signaling); format: cell-based
T3 construct: host or cells: U2OS or HEK (not assigned to 5-HT2C in the text)
T3 sequence (P28335 33-458): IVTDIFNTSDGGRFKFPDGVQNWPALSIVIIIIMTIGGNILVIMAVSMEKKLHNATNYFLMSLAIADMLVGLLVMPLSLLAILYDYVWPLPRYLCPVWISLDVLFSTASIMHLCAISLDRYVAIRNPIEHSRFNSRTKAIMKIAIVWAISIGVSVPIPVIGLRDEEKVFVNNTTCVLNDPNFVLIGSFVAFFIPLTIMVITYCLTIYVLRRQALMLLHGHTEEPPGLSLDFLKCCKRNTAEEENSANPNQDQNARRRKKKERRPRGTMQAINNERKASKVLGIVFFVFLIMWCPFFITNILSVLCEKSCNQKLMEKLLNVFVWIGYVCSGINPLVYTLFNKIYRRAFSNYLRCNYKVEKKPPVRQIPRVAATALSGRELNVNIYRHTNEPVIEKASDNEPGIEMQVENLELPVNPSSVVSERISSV
From the text: as §1, §2, §3, §4, §5

5HT2A [4] = target: T1, 5HT2A; assay: Calcium mobilization assay (Gq signaling); format: cell-based; parameters: host or cells: U2OS (human), stably transfected
From the text: as §1, §2
Cell lines expressing the GPCR of interest were expanded from freezer stocks according to standard procedures. Human 5-HT2A, 5-HT2B or 5-HT2C receptor-mediated calcium mobilization was evaluated in stably transfected human-derived U2OS (5-HT2A or 5-HT2B) or HEK (5-HT2B) cells. Cells were seeded in a total volume of 20 μL into black-walled, clear-bottom, Poly-D-lysine coated 384-well microplates and incubated at 37° C. overnight prior to testing.
Assays were performed in 1× Dye Loading Buffer consisting of 1× Dye, 1× Additive A and 2.5 mM Probenecid in HBSS/20 mM Hepes. Probenicid was prepared fresh. Cells were loaded with dye prior to testing. Media was aspirated from cells and replaced with 20 μL Dye Loading Buffer. Cells were incubated for 45 minutes at room temperature.
For agonist determination, cells were incubated with sample to induce response. After dye loading, cells were removed from the incubator and 10 μL HBSS/20 mM Hepes was added. 3× vehicle was included in the buffer when performing agonist dose curves to define the EC80 for subsequent antagonist assays. Cells were incubated for 30 minutes at room temperature in the dark to equilibrate plate temperature.
as §4
Compound activity data was analyzed using CBIS data analysis suite (ChemInnovation, CA). For agonist mode assays, percentage activity is calculated using the following formula: % Activity=100%×(mean RFU of test sample−mean RFU of vehicle control)/(mean MAX RFU control ligand−mean RFU of vehicle control).
In these studies, the MAX RFU was generated by using 0.1 μM serotonin for the calcium mobilization assay.

Human 5-HT1A receptor = target: T4, Human 5-HT1A receptor (Homo sapiens, UniProt P08908); assay: cAMP secondary messenger pathway assay (HitHunter cAMP, Gi agonist mode); format: cell-based; conditions: CHO cells, forskolin present, read-out: EC50 5-HT1A (Gi signaling)
T4 construct: host or cells: CHO (hamster), stably transfected, cAMP Hunter cell line
T4 sequence (P08908 1-422): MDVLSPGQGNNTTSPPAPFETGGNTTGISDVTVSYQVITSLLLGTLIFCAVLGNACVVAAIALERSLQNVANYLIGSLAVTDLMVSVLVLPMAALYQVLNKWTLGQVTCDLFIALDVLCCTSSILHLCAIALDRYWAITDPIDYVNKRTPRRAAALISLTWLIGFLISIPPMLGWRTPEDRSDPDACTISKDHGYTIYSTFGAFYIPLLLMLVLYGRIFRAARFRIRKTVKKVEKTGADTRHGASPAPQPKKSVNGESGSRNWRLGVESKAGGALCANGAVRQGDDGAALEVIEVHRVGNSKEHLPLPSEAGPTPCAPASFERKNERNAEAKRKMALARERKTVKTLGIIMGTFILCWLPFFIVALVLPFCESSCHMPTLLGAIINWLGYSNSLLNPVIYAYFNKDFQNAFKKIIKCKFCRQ
From the text: cAMP Secondary Messenger Pathway Assay Method (Performed by DiscoveRx Eurofins)
DiscoverX has developed a panel of cell lines stably expressing non-tagged GPCRs that signal through cAMP. Hit Hunter® cAMP assays monitor the activation of a GPCR via Gi and Gs secondary messenger signaling in a homogenous, non-imaging assay format using a technology developed by DiscoverX called Enzyme Fragment Complementation (EFC) with β-galactosidase (β-Gal) as the functional reporter. The enzyme is split into two complementary portions: EA for Enzyme Acceptor and ED for Enzyme Donor. ED is fused to cAMP and in the assay competes with cAMP generated by cells for binding to a cAMP-specific antibody. Active β-Gal is formed by complementation of exogenous EA to any unbound ED-cAMP. Active enzyme can then convert a chemiluminescent substrate, generating an output signal detectable on a standard microplate reader.
cAMP Hunter cell lines were expanded from freezer stocks according to standard procedures. Human 5-HT1A receptor-mediated cAMP signaling was evaluated in stably transfected hamster-derived CHO cells. Cells were seeded in a total volume of 20 μL into white walled, 384-well microplates and incubated at 37° C. overnight. cAMP modulation was determined using the DiscoverX HitHunter cAMP XS+ assay. […]
Compound activity was analyzed using CBIS data analysis suite (ChemInnovation, CA). […]

5-HT receptors = conditions: cited from earlier work

T1 sequence (P28223 whole entry): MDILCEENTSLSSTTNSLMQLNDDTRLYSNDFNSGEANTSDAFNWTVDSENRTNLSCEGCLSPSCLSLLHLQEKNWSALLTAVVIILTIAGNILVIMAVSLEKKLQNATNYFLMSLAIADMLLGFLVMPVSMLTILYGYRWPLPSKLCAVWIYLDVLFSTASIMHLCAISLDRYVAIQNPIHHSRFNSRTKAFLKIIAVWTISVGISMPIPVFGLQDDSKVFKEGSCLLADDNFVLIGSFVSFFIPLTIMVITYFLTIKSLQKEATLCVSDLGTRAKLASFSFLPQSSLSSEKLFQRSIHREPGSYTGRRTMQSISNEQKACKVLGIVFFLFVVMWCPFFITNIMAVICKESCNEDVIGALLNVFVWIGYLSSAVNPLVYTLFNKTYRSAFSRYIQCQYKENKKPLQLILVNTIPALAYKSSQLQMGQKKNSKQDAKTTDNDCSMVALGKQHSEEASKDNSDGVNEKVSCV

## COc1cc(C)c(OC)c2c1CC(N)CC2 (stereo not shown) [Compound 1-2, 5,8-dimethoxy-6-methyl-1,2,3,4-tetrahydronaphthalen-2-amine]
5HT2A [1]
  agonism / potency for β-arrestin recruitment at 5-HT2A: partial agonism
5HT2A [1]; U2OS cells, read-out: EC50 5-HT2A (β-arrestin signaling)
  EC50: 386 nM
5HT2A [1]; read-out: maximum efficacy levels (partial agonism), pathway not given, β-arrestin by context
  Emax: 66%
5HT2A [2]
  5HT2A activation (%) max @ 03 μM: 60.9%
  5HT2A activation (%) max @ 30 μM: 81.9%
[3]
  common psychedelic side effects in rats: failed to elicit common psychedelic side effects
Human 5-HT2B receptor
  EC50: 315 nM
Human 5-HT2C receptor
  EC50: 4.8 nM
5HT2A [4]
  agonism of 5-HT2A Gq-mediated signaling: full-agonism
5HT2A [4]; FIG. 1B
  potency bias, 5-HT2A Gq-mediated signaling versus β-arrestin recruitment: ~10 fold
5HT2A [4]; Gq signaling, FIG. 1A
  increase in potency at 5-HT2A compared to 5-HT2B: ~8 fold
5HT2A [4]; calcium mobilization
  EC50: 38.8 nM
5HT2A [4]; compared to the maximum serotonin response, read-out: max activation of 5-HT2A Gq-mediated signaling
  Emax: 97%
Human 5-HT1A receptor
  EC50: 438 nM
5-HT receptors
  activity at 5-HT receptors: has activity at 5-HT receptors

## CNC1CCc2c(OC)ccc(OC)c2C1 (stereo not shown) [Compound 1-4, 5,8-dimethoxy-N-methyl-1,2,3,4-tetrahydronaphthalen-2-amine hydrochloride]
5HT2A [2]
  5HT2A activation (%) max @ 03 μM: 8.5%
  5HT2A activation (%) max @ 30 μM: 20.3%

## COc1ccc(OC)c2c1CCCC2CN (stereo not shown) [Compound 3-1, (5,8-dimethoxy-1,2,3,4-tetrahydronaphthalen-1-yl)methanamine hydrochloride]
5HT2A [2]
  5HT2A activation (%) max @ 03 μM: 1.5%
  5HT2A activation (%) max @ 30 μM: 53%
